Earlier results on one compound are cited in US20040229960A1, “Compositions and methods of administering tubulin binding agents for the treatment of ocular diseases” (priority 2001, published 2004).

For the data set the following is noted: cited from earlier work.

SMILES strings stand for the structures.

As for `COc1ccc(/C=C\c2cc(OC)c(OC)c(OC)c2)cc1O` [CA4, combretastatin A4], the Solubility in water result is “essentially insoluble in water”.
